# In the supplement of paper PMC10307832:
# How the values were obtained:
# Experiment in all cases: relative viability (nuclei count vs DMSO), 5 days (fraction); higher = more cells survive
# [1] = compound: CNC(=O)c1ccccc1Sc1ccc2c(/C=C/c3ccccn3)n[nH]c2c1 [Axitinib] + C[C@]1(O)C[C@@H](c2nc(-c3ccc4ccc(-c5ccccc5)nc4c3)c3c(N)nccn32)C1 [Linsitinib] (partner 1 µM)
# Outline: (§1)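 Lung cancer cell lines, seeded in 1536-well plates, were treated the following day by pin tool with a single drug or with five library-drug doses (not always all listed) in √10 steps on top of a fixed anchor-drug dose. Cells were fixed and nuclei stained in one step after 5 days, and nuclei were counted. Relative viability is the nuclei count for treated wells divided by that for vehicle wells, reported as medians of duplicate plates.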
# [2] = compound: CNC(=O)c1ccccc1Sc1ccc2c(/C=C/c3ccccn3)n[nH]c2c1 [Axitinib] + N=C(N)NC(=N)NCCc1ccccc1 [Phenformin] (partner 250 µM)
# Outline: as §1
# [3] = compound: CC1=CC=C(C=C1)C(=O)CN2C3=C(CCCC3)SC2=N [Pifithrin_alpha] + Cc1cc(Nc2cc(N3CCN(C)CC3)nc(Sc3ccc(NC(=O)C4CC4)cc3)n2)n[nH]1 [Tozasertib] (partner 0.1 µM)
# Outline: as §1
# [4] = compound: CC1=CC=C(C=C1)C(=O)CN2C3=C(CCCC3)SC2=N [Pifithrin_alpha] + O=C(c1cc(Cc2n[nH]c(=O)c3ccccc23)ccc1F)N1CCN(C(=O)C2CC2)CC1 [Olaparib] (partner 8 µM)
# Outline: as §1
Cell Line,relative viability ([1]; first compound 0.005 µM),relative viability ([1]; first compound 0.01581 µM),relative viability ([1]; first compound 0.05 µM),relative viability ([1]; first compound 0.1581 µM),relative viability ([1]; first compound 0.5 µM),relative viability ([2]; first compound 0.005 µM),relative viability ([2]; first compound 0.01581 µM),relative viability ([2]; first compound 0.05 µM),relative viability ([2]; first compound 0.1581 µM),relative viability ([2]; first compound 0.5 µM),relative viability ([3]; first compound 1 µM),relative viability ([3]; first compound 3.162 µM),relative viability ([3]; first compound 10 µM),relative viability ([3]; first compound 31.62 µM),relative viability ([3]; first compound 100 µM),relative viability ([4]; first compound 1 µM),relative viability ([4]; first compound 3.162 µM),relative viability ([4]; first compound 10 µM),relative viability ([4]; first compound 31.62 µM),relative viability ([4]; first compound 100 µM)
201T,1.08,1,1.02,0.965,0.966,0.475,0.412,0.449,0.446,0.399,0.991,0.679,0.729,0.57,0.638,0.843,0.891,0.601,0.564,0.619
NCI-H1734,1.05,0.829,0.977,0.903,1.04,0.423,0.401,0.371,0.404,0.366,0.28,0.259,0.238,0.262,0.245,0.588,0.502,0.529,0.328,0.575
NCI-H1993,0.725,0.745,0.773,0.79,0.826,0.494,0.514,0.496,0.592,0.529,0.586,0.636,0.573,0.529,0.559,1.06,1.11,0.779,0.697,0.866
NCI-H2085,1.02,1,0.845,0.794,1,0.767,0.728,0.742,0.751,0.733,0.828,0.467,0.427,0.478,0.489,0.807,0.778,0.796,0.523,0.685
COR-L23,0.899,0.944,1.01,0.968,1.11,0.458,0.417,0.428,0.419,0.485,0.168,0.15,0.152,–,0.13,0.262,0.306,0.267,–,0.269
NCI-H1793,0.85,0.836,0.935,1.01,0.881,0.393,0.4,0.415,0.358,0.328,–,0.272,0.277,0.276,0.218,1.01,0.757,0.798,0.365,0.649
EPLC-272H,1.33,1.1,1.32,1.12,1.07,0.324,0.326,0.341,0.279,0.304,0.255,0.13,0.169,0.202,0.292,0.762,0.585,0.72,0.425,0.467
NCI-H2009,1.23,1.18,1.21,1.28,1.36,0.492,0.497,0.506,0.513,0.577,0.822,0.755,0.693,0.413,0.495,0.701,0.903,0.594,0.286,0.614
NCI-H460,0.94,0.875,0.861,0.716,0.854,0.553,0.515,0.583,0.518,0.678,0.397,0.485,0.0522,0.0525,0.126,0.456,0.343,0.257,–,0.21
NCI-H322M,0.932,0.897,0.892,0.889,0.827,0.886,0.754,0.812,0.712,0.989,0.51,0.483,0.493,0.449,0.486,0.74,0.715,0.723,0.468,0.559
HCC-827,0.927,0.907,0.963,0.977,0.999,0.408,0.4,0.419,0.381,0.459,0.422,0.522,0.381,0.337,0.353,0.248,0.672,0.715,0.355,0.648
HOP-62,0.961,0.977,0.777,0.894,1.06,0.73,0.63,0.742,0.665,0.853,0.385,0.584,0.355,0.358,0.344,0.524,0.635,0.446,0.127,0.65
NCI-H2023,0.687,0.635,0.698,0.636,0.736,0.426,0.436,0.467,0.372,0.473,0.247,0.177,0.209,–,0.167,0.514,0.455,0.318,0.301,0.244
NCI-H441,0.593,0.52,0.519,0.582,0.576,0.929,0.803,0.882,0.76,0.834,0.483,0.652,0.401,–,0.451,0.608,0.673,0.468,–,0.542
NCI-H2347,1.07,0.929,1.08,1.07,0.914,0.454,0.405,0.529,0.393,0.259,0.614,0.543,0.382,0.412,0.501,0.603,0.573,0.587,0.541,0.547
NCI-H358,0.729,0.803,0.852,0.727,0.848,0.344,0.32,0.332,0.309,0.388,0.112,0.0941,0.101,0.104,0.0923,0.628,0.559,0.459,0.252,0.555
NCI-H1944,1.24,1.16,1.16,1.16,1.24,0.204,0.199,0.206,0.191,0.189,0.236,0.225,0.23,0.191,0.19,0.378,0.337,0.344,0.25,0.28
ABC-1,0.972,0.947,0.745,0.759,1.22,0.268,0.239,0.222,0.21,0.241,0.204,0.167,0.188,0.229,0.173,–,0.774,0.557,0.405,0.477
UMC-11,1.08,0.982,1.02,1.04,1.1,0.343,0.353,0.322,0.326,0.34,0.179,0.207,0.198,0.19,0.175,0.367,0.365,1.09,0.402,0.249
PC-3 [JPC-3],0.948,–,0.972,0.944,0.986,0.491,0.445,0.493,0.507,0.539,0.943,0.896,0.629,0.635,0.704,–,1.11,–,0.564,0.764
LU99A,0.611,0.561,0.5,0.483,0.553,0.784,0.823,0.981,0.88,0.91,0.304,0.259,0.31,0.286,0.25,0.248,0.242,0.277,–,0.236
CAL-12T,0.873,0.903,0.748,0.911,0.712,0.567,0.53,0.559,0.63,0.504,0.348,0.22,0.234,–,0.226,0.706,0.631,0.535,0.46,0.574
NCI-H2087,1.06,0.905,0.96,0.699,0.968,0.48,0.418,0.51,0.444,0.563,0.245,0.422,0.206,–,0.152,0.617,0.614,0.524,0.236,0.469
LCLC-97TM1,0.187,0.226,0.199,0.179,0.186,0.458,0.381,0.43,0.47,0.314,0.293,0.178,0.177,0.148,0.217,–,0.39,0.33,–,0.289
BEN,1.04,1.01,0.689,0.803,0.928,0.268,0.29,0.246,0.236,0.262,–,0.684,0.534,0.443,0.514,1.01,1.13,1.01,0.562,1.01
NCI-H727,0.415,0.246,0.311,0.246,0.432,0.7,0.519,0.589,0.536,0.728,0.505,0.657,0.52,–,0.579,0.71,0.843,0.68,0.583,0.597
NCI-H1915,1.03,1.12,1.09,1.13,1.13,0.385,0.362,0.371,0.35,0.393,0.454,0.465,–,–,0.399,0.245,0.267,0.249,–,0.276
HARA,1.06,0.972,1.09,0.914,1.05,0.421,0.412,0.493,0.392,0.488,–,0.107,0.117,–,0.0634,0.659,0.931,1,0.305,0.808
